The values that follow come from ChEMBL document CHEMBL1201862, “PubChem BioAssay data set” (2004).

The source made the active and inactive calls.

Experiment [1] in a line: Luminescence-based cell-based high throughput dose response assay to identify activators of the DAF-12 from the parasite S. stercoralis (ssDAF-12). The class given is functional.
The target in experiment [2] is T1, Oxysterols receptor LXR-beta (Homo sapiens, UniProt P55055).
T1 sequence (P55055 whole entry): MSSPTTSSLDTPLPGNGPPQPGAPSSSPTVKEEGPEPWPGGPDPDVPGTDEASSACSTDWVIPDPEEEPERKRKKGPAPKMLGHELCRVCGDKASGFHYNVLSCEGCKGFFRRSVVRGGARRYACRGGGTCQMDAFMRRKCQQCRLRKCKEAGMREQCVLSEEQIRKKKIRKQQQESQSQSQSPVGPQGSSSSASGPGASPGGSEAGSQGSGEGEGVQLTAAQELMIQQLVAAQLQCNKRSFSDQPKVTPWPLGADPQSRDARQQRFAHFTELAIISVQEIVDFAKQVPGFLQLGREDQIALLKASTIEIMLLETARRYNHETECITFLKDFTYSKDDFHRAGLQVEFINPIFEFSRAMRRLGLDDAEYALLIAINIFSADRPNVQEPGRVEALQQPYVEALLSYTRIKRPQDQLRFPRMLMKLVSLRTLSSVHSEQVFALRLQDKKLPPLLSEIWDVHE
In words: LXR agonists, Gal4 luciferase reporter, dose response, counter-screen for ssDAF-12 agonist project, cell-based, luminescence, HEK293, S. stercoralis campaign (AID 720737). It is filed as functional. As to conditions: read-out: IC50 (the source's name).

Experiment [3] in a line: miR-122 activators in hepatoma reporter cells, dose response, cell-based, Huh7 psiCHECK-miR122, Renilla luciferase, cherry-picked (AID 651956).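 Note: huh7 hepatoma cells stably carrying a psiCHECK-2 miR-122 sensor plasmid; renilla luciferase signal reporting endogenous miR-122 activity after 48 h compound exposure.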 The class given is functional.
Experiment [4] is described as follows: HEK293T cytotoxicity, dose response, cytotoxicity control for miR-122 modulator project, cell-based, activator set, cherry-pick (AID 720690).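 Note: HEK293T human cells scored for general mammalian cytotoxicity.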 It is filed as functional.
A short description of experiment [5]: P. falciparum Dd2 growth inhibitors, dose response, SYBR Green, cherry-picked samples (AID 1159567). It is filed as functional, cell-based.
A short description of experiment [6]: HepG2 cell cytotoxicity, dose response, cytotoxicity control, cherry-picked samples (AID 1159577). The class given is functional, cell-based.
The next experiment deals with Paired box protein Pax-8 (Homo sapiens, UniProt Q06710). Kind of experiment: inhibitors of PAX8-driven TPO luciferase reporter, dose response, RMG-I cells, cherry-pick (AID 687027).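 Note: luciferase reporter driven by Pax8 target thyroperoxidase promoter measured by SteadyGlo luminescence.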 The class given is functional, cell-based.
Experiment [7] is described as follows: HEK293T cytotoxicity, dose response, cytotoxicity control for miR-122 modulator project, cell-based, inhibitor set, cherry-pick, set 2 (AID 720697). The class given is functional.
Experiment [8] has as its system BJ. Kind of experiment: cytotoxicity toward BJ-TERT fibroblasts, dose response, cell-based, RAS-independent, luminescence (AID 1933). The class given is functional. The conditions noted are these: Homo sapiens.
Experiment [9] concerns BJ. Kind of experiment: cells. The class given is functional, cell-based. As to conditions: Homo sapiens.
The test system of experiment [10] is BJ. In words: cytotoxicity toward BJ-TERT-LT-ST fibroblasts, dose response, cell-based, RAS-independent, luminescence (AID 1935).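 Note: BJ fibroblasts immortalized with TERT plus LT and ST oncogenes.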 The class given is functional. The conditions noted are these: Homo sapiens.
The nature of experiment [11]: cytotoxicity toward DRD oncogenic fibroblasts, dose response, cell-based, non-viral oncogenic, luminescence (AID 1934). It is filed as functional. The conditions noted are these: Homo sapiens.
Experiment [12] is described as follows: non-specific cell cytotoxicity, dose response, cytotoxicity control for PAX8 inhibitor project, plate reader, dry powder samples (AID 743021). The class given is functional, cell-based.
A short description of experiment [13]: ADAM10 protease inhibitors, dose response, selectivity assay for ADAM17 exosite inhibitor project, biochemical, FRET peptide substrate, recombinant human ADAM10 (AID 743259).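 Note: ADAM10 enzyme cleaving a FRET peptide substrate.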
Experiment [14] has as its target Disintegrin and metalloproteinase domain-containing protein 17 (Homo sapiens, UniProt P78536). In words: exosite inhibitors of ADAM17, dose response, biochemical (AID 743260).
Experiment [15] is described as follows: NIH:OVCAR-3 ovarian cancer cell cytotoxicity, dose response, PAX8 inhibitor project, plate reader, dry powder samples (AID 743044). The class given is functional, cell-based.
Experiment [16] can be described thus: A549 cell cytotoxicity, dose response, cytotoxicity control, plate reader, cherry-pick, antagonist series (AID 743412). The class given is functional, cell-based.
Experiment [17] is described as follows: HepG2 cell cytotoxicity, dose response, cytotoxicity control, plate reader, cherry-pick, antagonist series (AID 743416). It is filed as functional, cell-based.
Experiment [18] can be described thus: LGR2 antagonists, dose response, cell-based, HEK293, CRE-luciferase reporter, cherry pick, set 2 (AID 743343).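 Note: transfected cells were stimulated with diluted bursicon conditioned medium after compound addition.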 The class given is functional. A general note: In a reporter assay the amount or activity of a reporter protein is the signal.
Experiment [19] is described as follows: MC4R antagonists, dose response, counter-screen for LGR2 antagonist project, cell-based, plate reader, cherry pick (AID 743444).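 Note: transfected HEK 293 cells stimulated with alpha-MSH peptide; potency of inhibitors of the alpha-MSH evoked signal.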 The class given is functional. For orientation: A counterscreen serves to expose hits that act by an unwanted route or on another target.
The next experiment deals with Large T antigen (Simian virus 40, UniProt P03070). It is filed as functional, Betapolyomavirus macacae.
Experiment [20] concerns the target T2, Bifunctional protein GlmU (Mycobacterium tuberculosis, UniProt P9WMN3).
T2 sequence (P9WMN3 whole entry): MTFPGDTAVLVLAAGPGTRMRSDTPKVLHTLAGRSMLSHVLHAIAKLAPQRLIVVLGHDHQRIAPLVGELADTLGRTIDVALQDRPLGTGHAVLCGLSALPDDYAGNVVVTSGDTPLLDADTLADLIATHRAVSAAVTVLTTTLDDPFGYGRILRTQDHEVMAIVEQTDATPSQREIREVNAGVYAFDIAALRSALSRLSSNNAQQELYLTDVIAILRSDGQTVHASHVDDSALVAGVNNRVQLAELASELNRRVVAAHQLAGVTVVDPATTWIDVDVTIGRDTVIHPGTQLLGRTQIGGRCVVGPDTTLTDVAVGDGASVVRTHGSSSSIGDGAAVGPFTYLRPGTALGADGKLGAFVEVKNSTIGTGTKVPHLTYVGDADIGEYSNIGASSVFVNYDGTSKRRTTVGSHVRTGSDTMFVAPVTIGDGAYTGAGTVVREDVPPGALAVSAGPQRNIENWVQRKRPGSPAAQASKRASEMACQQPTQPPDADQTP
Kind of experiment: Inhibitors of Mycobacterial Glucosamine-1-phosphate acetyl transferase (GlmU). Secondary screen. The arrangement: species or system Mycobacterium tuberculosis H37Rv.

The next experiment concerns the target Genome polyprotein (dengue virus type 2, UniProt P29990). Kind of experiment: Dengue-2 NS5 methyltransferase inhibitors, primary screen, biochemical, confirmation dose response (AID 588689). It is filed as functional.
Experiment [21] addresses T3, Polyadenylate-binding protein 1 (Homo sapiens, UniProt P11940). In words: PABP1 MLLE–PAM2 interaction inhibitors, dose response, miRNA deadenylation inhibitor project, biochemical, fluorescence polarization, Cy5-PAM2 peptide, secondary (AID 602260). The class given is functional. The conditions noted are these: read-out: IC50_Mean. Background: Polarisation of emitted light reports the rotation of a fluorescent probe.

For experiment [22], the target named is T3, Polyadenylate-binding protein 1. Kind of experiment: PABP1 MLLE–PAM2 binding inhibitor potency, dose response, biochemical, fluorescence polarization, FITC-PAM2 peptide (AID 602259). The class given is functional. As to conditions: read-out: IC50_Mean.

Sequence of Paired box protein Pax-8 (Q06710 whole entry): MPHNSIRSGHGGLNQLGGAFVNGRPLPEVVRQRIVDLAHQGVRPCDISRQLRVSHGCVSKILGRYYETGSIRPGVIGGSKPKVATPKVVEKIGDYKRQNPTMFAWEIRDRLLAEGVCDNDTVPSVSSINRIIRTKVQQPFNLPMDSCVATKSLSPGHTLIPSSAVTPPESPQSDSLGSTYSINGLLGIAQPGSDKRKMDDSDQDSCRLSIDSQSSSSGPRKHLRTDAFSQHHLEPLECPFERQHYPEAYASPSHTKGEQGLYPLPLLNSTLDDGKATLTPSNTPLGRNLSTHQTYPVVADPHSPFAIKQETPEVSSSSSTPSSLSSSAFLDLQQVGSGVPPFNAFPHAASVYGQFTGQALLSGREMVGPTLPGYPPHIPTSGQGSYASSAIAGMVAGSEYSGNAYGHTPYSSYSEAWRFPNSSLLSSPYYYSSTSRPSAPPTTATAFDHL
T3 sequence (P11940 whole entry): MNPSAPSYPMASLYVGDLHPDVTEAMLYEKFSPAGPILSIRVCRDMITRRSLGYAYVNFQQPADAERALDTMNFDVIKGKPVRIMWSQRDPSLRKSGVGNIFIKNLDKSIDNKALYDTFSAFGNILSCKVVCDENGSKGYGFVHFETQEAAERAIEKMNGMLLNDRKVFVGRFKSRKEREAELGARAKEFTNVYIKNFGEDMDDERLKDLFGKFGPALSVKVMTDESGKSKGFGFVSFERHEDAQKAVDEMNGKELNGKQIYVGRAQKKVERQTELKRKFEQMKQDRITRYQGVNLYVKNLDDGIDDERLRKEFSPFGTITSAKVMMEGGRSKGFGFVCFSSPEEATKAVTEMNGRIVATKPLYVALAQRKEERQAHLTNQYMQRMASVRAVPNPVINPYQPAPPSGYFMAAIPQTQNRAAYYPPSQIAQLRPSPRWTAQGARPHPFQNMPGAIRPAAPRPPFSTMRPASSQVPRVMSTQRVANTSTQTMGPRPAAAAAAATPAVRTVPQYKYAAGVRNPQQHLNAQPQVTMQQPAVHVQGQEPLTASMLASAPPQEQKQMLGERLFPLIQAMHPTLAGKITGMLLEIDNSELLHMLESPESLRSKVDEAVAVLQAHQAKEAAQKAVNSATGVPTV
Sequence of Genome polyprotein (P29990 2492-3391 limits assumed): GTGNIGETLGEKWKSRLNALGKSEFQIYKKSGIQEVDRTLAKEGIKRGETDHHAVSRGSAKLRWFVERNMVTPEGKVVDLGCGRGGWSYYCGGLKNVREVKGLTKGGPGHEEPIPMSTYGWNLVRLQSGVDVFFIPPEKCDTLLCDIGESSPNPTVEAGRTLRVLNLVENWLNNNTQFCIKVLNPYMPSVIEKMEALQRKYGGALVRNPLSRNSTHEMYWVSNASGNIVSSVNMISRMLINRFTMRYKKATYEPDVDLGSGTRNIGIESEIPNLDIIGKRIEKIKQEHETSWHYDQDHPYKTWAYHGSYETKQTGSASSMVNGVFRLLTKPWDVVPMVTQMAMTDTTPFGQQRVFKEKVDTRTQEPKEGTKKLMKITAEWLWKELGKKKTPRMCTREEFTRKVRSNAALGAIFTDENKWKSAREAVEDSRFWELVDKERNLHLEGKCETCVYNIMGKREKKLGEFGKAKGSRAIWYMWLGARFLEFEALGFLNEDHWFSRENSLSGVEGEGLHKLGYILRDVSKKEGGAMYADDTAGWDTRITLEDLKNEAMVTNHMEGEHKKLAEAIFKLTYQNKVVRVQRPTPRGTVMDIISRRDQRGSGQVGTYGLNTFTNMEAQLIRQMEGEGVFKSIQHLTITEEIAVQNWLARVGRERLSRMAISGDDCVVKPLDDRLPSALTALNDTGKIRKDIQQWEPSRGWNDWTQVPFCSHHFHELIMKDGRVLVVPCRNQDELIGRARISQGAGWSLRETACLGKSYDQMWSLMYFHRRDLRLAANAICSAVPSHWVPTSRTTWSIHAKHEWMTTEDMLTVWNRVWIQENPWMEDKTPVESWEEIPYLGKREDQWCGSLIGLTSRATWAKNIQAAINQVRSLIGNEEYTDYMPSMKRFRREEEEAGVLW
Sequence of Disintegrin and metalloproteinase domain-containing protein 17 (P78536 whole entry, the tested form may be a part): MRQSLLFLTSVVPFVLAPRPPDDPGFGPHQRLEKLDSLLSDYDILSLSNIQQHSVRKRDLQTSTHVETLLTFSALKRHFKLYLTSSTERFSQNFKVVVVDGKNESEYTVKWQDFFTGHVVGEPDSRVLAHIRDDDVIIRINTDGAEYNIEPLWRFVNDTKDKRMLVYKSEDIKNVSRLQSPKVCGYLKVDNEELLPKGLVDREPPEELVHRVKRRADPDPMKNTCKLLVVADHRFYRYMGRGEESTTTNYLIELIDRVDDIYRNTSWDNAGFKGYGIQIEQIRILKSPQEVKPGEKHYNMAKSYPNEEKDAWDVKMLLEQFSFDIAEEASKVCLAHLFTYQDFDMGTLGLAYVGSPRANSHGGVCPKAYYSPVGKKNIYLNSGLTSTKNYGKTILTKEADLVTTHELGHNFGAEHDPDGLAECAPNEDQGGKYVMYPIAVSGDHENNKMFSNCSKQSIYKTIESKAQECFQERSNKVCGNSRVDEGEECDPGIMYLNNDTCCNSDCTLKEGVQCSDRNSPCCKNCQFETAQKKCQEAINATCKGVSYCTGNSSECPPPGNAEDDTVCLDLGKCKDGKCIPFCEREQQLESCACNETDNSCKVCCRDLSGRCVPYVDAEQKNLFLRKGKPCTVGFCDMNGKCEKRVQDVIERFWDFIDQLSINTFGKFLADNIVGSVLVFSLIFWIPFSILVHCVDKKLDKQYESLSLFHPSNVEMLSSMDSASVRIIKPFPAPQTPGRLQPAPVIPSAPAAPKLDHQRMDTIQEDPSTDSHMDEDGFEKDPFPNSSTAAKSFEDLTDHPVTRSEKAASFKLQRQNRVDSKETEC
Sequence of Large T antigen (P03070 whole entry): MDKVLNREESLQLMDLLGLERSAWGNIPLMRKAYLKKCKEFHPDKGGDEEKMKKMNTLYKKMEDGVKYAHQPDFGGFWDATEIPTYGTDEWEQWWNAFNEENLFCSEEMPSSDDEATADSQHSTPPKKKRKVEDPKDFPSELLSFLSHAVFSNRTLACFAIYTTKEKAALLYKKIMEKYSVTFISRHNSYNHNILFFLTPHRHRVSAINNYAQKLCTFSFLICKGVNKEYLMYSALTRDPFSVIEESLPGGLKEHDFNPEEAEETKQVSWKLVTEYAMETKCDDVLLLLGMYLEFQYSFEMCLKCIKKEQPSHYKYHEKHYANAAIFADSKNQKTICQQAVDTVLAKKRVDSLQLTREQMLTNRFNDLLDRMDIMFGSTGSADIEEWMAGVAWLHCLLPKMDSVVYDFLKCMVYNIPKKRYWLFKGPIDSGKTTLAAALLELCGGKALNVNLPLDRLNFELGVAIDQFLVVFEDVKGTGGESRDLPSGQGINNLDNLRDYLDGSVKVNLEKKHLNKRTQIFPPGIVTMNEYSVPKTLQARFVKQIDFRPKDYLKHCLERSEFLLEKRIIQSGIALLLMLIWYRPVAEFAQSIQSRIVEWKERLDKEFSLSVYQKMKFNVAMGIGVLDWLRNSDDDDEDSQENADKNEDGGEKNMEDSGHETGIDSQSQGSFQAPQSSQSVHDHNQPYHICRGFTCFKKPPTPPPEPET

On to `Cc1onc(-c2ccccc2)c1C(=O)OCC(=O)c1ccc(F)cc1`, for which the IC50 in experiment [1] was > 67.5 µM (inactive). Further, the EC50 in experiment [2] was > 67.5 µM (inactive).

In the case of `O=C(Nc1ccccc1)N1CCCCN2[C@@H](CO)[C@H](c3ccc(C4=CCCCC4)cc3)[C@@H]2C1`, the AC50 in experiment [3] and in experiment [4] was 10 µM (active) each time.

Take `CN(/N=C/c1cccnc1)c1cnc2ccccc2n1`: in [1], the IC50 was > 67.5 µM (inactive). For the same compound, the EC50 in [2] is > 67.5 µM (inactive).

`OC[C@@H]1[C@H](c2ccc(-c3ccc(F)cc3)cc2)[C@H](CNC2CCCC2)N1CCC(F)(F)F`: the half-maximal activity concentration (AC50) in [5] was 2.51 µM (active); in experiment [6] it was 16.5 µM (active).

For the compound `C/C=C/c1ccc([C@@H]2[C@H](CO)N[C@H]2CN(CC(C)C)C(=O)c2ccccn2)cc1`, the AC50 in experiment [4] was 23.5 µM (active).

`COc1ccc(S(=O)(=O)Nc2ccc3c(c2)CC(=O)N([C@@H](C)CO)C[C@@H](C)[C@H](CN(C)Cc2ccc(-c4ccccc4)cc2)O3)cc1`: the figures for the AC50 (at Paired box protein Pax-8; in [4]) were 6.29 µM (active) and 17.5 µM (active), respectively.

With `C[C@@H]1CN([C@H](C)CO)C(=O)c2cc(NC(=O)Nc3ccc(C(F)(F)F)cc3)ccc2O[C@@H]1CN(C)CC1CCCCC1`, the AC50 in [3] was 32.8 µM (active); in experiment [7] it was 10.2 µM (active).

Regarding `O=C(NC1CCCCC1)C(c1cccnc1)N(C(=O)CCl)c1ccccc1Cl` (stereo not drawn), the EC50 with BJ [8] was 3.94 µM (inconclusive); with BJ [9] it was > 150 µM (not active); with BJ [10], > 150 µM (not active); in experiment [11], 37.3 µM (active). Further, the results for the AC50 (at Paired box protein Pax-8; in experiment [12]) were 6.05 µM (active) and 11.2 µM (active), respectively.

For the compound `Sc1n[nH]c(-c2sccc2OCc2ccc(Cl)cc2Cl)n1`, the IC50 in experiment [13] was > 69.5 µM (inactive).

In the case of `CCCn1c(CCNc2nc(-c3cccc(Br)c3)cs2)nc2ccccc21`, the IC50 in experiment [14] and in [13] was > 69.6 µM (inactive) each time.

As for `COCC(=O)N1CCCCN2[C@H](C1)[C@@H](c1ccc(-c3ccc(C)cc3)cc1)[C@@H]2CO`, the AC50 at Paired box protein Pax-8 was 58.9 µM (active); in [15], 56.3 µM (active).

As to `O=C(O)c1cccc(-c2nc3ccccc3[nH]2)c1`, the AC50 was > 52 µM (inactive) in [16], > 52 µM (inactive) in experiment [17], 1.54 µM (active) in experiment [18] and 1.5 µM (active) in experiment [19].

Regarding `O=C(O)c1ccc(Nc2cc(Cl)c3nonc3c2[N+](=O)[O-])cc1`, the IC50 is 76.6 µM (active) at Large T antigen; 92 µM (active) in experiment [20]; 12 µM (active) on Genome polyprotein; > 66 µM (inactive) in [21]; > 66 µM (inactive) in [22].

As a reminder, the AC50 is the concentration at which the activity in the assay is half-maximal.
